# Reference: US6939566B2, “Microbicidal formulations and methods to control microorganisms” (priority 1999, dated 2005)
# Experiments:
# [1] = tested on: E. coli, Stafelococus, Bascillus, and Salmonella; assay: Bactericidal efficacy of diluted disinfectants on actively growing pathogenic bacteria; assay type: cell-based; details: H2O2 absent; about 51 ppm complex silver
# Protocol: Again, these prepared solutions were poured into dark bottles.
# The above concludes the preparation of these disinfectants. However, to utilize these mixtures as bactericides, 5 ml of each bottled solution was added to 45 ml of double distilled-de-ionized water (10% by volume). […] The upper and lower concentration limits may be different if desired, depending on the nature of the desired application. For the samples where H2O2 is present, the active concentration of the disinfectant should be around 56,000 ppm.
# The diluted solutions were then tested on several kinds of actively growing pathogenic bacteria to ascertain their effectiveness. Different strains of pathogenic bacteria were employed for the testing; namely, E. coli, Stafelococus, Bascillus, and Salmonella.
# [2] = tested on: freshly-cut roses; assay: Preservation of cut flowers and plants; details: examined after 15 days; silver approximately 166 ppb in tap water for the invention's sample
# Protocol: A silver concentration of approximately 166 ppb was used. Both inoculated and controlled samples were tested in which freshly-cut roses were placed in the prepared solution and tap water, respectively. Cut roses were chosen because they are very susceptible to slight changes in the surrounding area and are equally susceptible to chemicals. For comparative purposes, other preservative type chemicals were also tested; namely, silver thiosulfate and hypochlorite.
# In the case of the two other chemicals used, it was observed that there was discoloration of the petals, loss of leaves and petals, and dehydration.
Substance,order of potency among the amino acid complexes [1],condition of cut roses [2]
Silver-Arginine Complex [Example 3],most potency,
Silver-glutamic Acid Complex [Example 1],,"no black or brown burns on the petals and there were no wilted flowers, and the stems and leaves were in good condition"
